From PMC8162438, “Cancer cell-selective modulation of mitochondrial respiration and metabolism by potent organogold(III) dithiocarbamates” (Chemical Science, 2020)

Each molecule was assayed on MRC5 (assay: MTT cell viability, human fetal lung fibroblasts MRC5). Conditions: 72 h.
Format: cell-based
Protocol: All the gold(III) dithiocarbamate compounds display remarkable cell killing potential in a panel of breast, ovarian, lung and leukemia cancers. Preliminary studies focused on different cancer cell lines (MDA-MB-231, MDA-MB-175, and A2780), an immortalized normal retinal epithelial cell line (RPE-NEO) and human fetal lung fibroblasts (MRC5) (Fig. S111–S129 ^†). These adherent cells were exposed to a serial-diluted concentration of all ten compounds for 72 h. The cells were subsequently treated with 3-(4,5-dimethylthiazol-2-yl)-2,5-diphenyltetrazolium bromide (MTT) solutions, dissolved with DMSO and the absorbance at 570 nm was measured with a plate-reader.
In Vitro Biological Assays
Cell Culture. All cell lines were purchased from ATCC and routinely grown in a humidified incubator at 37 °C with 5-10% CO 2. MDA-MB-231, MDA-MB-175, MRC5, RPE-NEO, H460, and K562 were grown in DMEM supplemented with 10% FBS, 1% amphotericin and 1% penicillin/streptomycin. A2780 cells were grown in RPMI supplemented with 10% FBS, 1% amphotericin, and 1% penicillin/streptomycin, and 4 mM glutamine. All supplements along with PBS and trypsin-EDTA were purchased from Corning Inc. and used as is. […]
Cell Viability of 1a-1e and 2a-2e (Adherent Cell Lines). The cell viability of all 10 complexes were performed in MDA-MB-231, MDA-MB-175, A2780, RPE-NEO and MRC5. The cell viability of compound 2a was also determined in H460. Cells were grown to confluency and trypsin was added to detach and harvest cells. The cells were washed with 2 mL of PBS and suspended in 10 mL of the appropriate media. The cells were centrifuged at 2000 rpm for 5 minutes and the pellet washed with 2 mL of PBS then suspended in 5 mL of the appropriate […]
media. The cells were plated at a density of 2,000 cells/well in a 96-well clear bottom plate and allowed to adhere overnight at 37 °C with 5-10% CO 2. The compounds were prepared as a stock in DMSO and used fresh. The compounds were added at seven concentrations with a 3x serial dilution starting at 50 µM for the highest concentration and incubated at 37 °C for 72 h with 5-10% CO 2. The medium was removed and a solution of MTT (100 µL, prepared by dissolving MTT at 5 mg/mL and diluting by 10x with DMEM) was added to each well and incubated for 4 h at 37 ° C with 5-10% CO 2. The dye was removed from each well and 100 µL of DMSO was added to induce cell lysis. The plates were read using a Genios plate reader (λ = 570 nm). The experiment was performed in triplicate and data are plotted as the mean ± s.e.m. (n = 3). Data for 2a can be found in the main text (Figure 6) and the other complexes can be seen in the supplementary figures (S111 – S129). […]
Cells were grown to confluency and centrifuged at 2000 rpm for 5 minutes to collect the cell pellet. The cells were washed with 5 mL of PBS, suspended in 5 mL of DMEM, and centrifuged again at 2000 rpm for 5 minutes to collect the pellet. The pellet was then washed with 2 mL of PBS and suspended in 5 mL of DMEM. The cells were plated at density of 2,000 cells/well in a 96-well white bottom plate. 2a was prepared as a stock solution […]
10% CO 2. The cells were removed from the incubator and allowed to rest at room temperature for 30 minutes. To each designated well was then added 20 µL of CellTiter-Glo solution and orbitally shaken for 5 minutes and the luminescence (1000 ms integration and 150 ms gain) acquired on a Genios plate reader. The experiment was performed in triplicate. Data are plotted […]
Apoptosis Analysis. […]
A stock of 2a was prepared fresh in DMSO and added to the desired well at a concentration of 1 µM with a final volume of 2.5 mL and incubated for 4 h at 37 °C. A stock of H2O2 was prepared in PBS and the cells treated at a final concentration of 2 mM for 1 hour as a […]
For `COc1ccc(N2CC[N+](=C3[S][Au-2]4([S]3)[c]3ccccc3Cc3cccc[n+]34)CC2)cc1.F[P-](F)(F)(F)(F)F` (centres unmarked) [2e], the IC50 was > 50 µM.
With `F[P-](F)(F)(F)(F)F.c1cc[c]2c(c1)Cc1cccc[n+]1[Au-2]21[S]C(=[N+]2CCCCC2)[S]1` (centres unmarked) [2c] the IC50 was > 50 µM.
With `CC[N+](CC)=C1[S][Au-2]2([S]1)[c]1ccccc1C(=O)c1cccc[n+]12.F[P-](F)(F)(F)(F)F` (centres unmarked) [1b] the IC50 was > 50 µM.
In the case of `F[P-](F)(F)(F)(F)F.O=C1c2cccc[c]2[Au-2]2([S]C(=[N+]3CCN(c4ccc(Br)cc4)CC3)[S]2)[n+]2ccccc21` (centres unmarked) [1d], the IC50 is reported as > 50 µM.
For `F[P-](F)(F)(F)(F)F.O=C1c2cccc[c]2[Au-2]2([S]C(=[N+]3CCCCC3)[S]2)[n+]2ccccc21` (centres unmarked) [1c], the IC50 was > 50 µM.
`Brc1ccc(N2CC[N+](=C3[S][Au-2]4([S]3)[c]3ccccc3Cc3cccc[n+]34)CC2)cc1.F[P-](F)(F)(F)(F)F` (centres unmarked) [2d] was tested, and the IC50 was > 50 µM.
With `COc1ccc(N2CC[N+](=C3[S][Au-2]4([S]3)[c]3ccccc3C(=O)c3cccc[n+]34)CC2)cc1.F[P-](F)(F)(F)(F)F` (centres unmarked) [1e] the IC50 was > 50 µM.
With `CC[N+](CC)=C1[S][Au-2]2([S]1)[c]1ccccc1Cc1cccc[n+]12.F[P-](F)(F)(F)(F)F` (centres unmarked) [2b] the IC50 was > 50 µM.
